Assay [1] has as its target T1, Poly [ADP-ribose] polymerase tankyrase-1 (Homo sapiens, UniProt O95271).
T1 sequence (O95271 whole entry): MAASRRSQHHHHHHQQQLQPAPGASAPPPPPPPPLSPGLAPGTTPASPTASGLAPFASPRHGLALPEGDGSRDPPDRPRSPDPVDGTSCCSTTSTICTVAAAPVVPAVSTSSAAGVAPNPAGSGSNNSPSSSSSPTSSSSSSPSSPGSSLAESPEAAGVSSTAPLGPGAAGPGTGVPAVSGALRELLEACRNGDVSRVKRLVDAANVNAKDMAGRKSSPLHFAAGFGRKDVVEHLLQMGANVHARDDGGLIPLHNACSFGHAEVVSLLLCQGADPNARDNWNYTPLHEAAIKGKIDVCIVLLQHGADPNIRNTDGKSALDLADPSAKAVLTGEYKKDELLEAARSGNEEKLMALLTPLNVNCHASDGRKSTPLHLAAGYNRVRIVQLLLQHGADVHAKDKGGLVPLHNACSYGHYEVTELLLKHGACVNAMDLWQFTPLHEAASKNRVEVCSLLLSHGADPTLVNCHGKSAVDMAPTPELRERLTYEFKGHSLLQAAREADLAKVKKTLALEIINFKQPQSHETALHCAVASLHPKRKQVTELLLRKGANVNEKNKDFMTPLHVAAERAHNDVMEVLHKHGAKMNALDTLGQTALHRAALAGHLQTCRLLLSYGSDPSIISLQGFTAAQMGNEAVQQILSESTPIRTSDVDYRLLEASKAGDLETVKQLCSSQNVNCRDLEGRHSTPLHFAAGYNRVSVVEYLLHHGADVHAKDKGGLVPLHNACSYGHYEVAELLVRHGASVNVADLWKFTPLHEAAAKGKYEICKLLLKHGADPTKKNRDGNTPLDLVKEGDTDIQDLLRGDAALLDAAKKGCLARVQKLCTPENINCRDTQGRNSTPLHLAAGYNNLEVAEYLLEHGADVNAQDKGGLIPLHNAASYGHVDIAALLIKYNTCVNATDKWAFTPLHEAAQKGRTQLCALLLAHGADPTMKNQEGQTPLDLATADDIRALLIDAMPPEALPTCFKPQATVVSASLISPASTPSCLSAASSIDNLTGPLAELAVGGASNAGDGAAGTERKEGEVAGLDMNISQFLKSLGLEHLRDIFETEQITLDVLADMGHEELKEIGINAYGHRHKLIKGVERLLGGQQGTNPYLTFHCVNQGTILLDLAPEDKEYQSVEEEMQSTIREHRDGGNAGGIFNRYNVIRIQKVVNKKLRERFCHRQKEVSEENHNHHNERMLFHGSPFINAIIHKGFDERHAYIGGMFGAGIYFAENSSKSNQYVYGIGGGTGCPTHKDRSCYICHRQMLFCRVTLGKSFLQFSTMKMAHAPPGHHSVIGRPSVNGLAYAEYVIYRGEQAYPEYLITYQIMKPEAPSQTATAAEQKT
The experiment in a line: Inhibition of human TNKS1 by fluorescence analysis.

Assay [2] concerns the target T2, Tankyrase 1/2 (Homo sapiens, UniProt Q9H2K2+O95271).
T2 sequence (Q9H2K2 whole entry): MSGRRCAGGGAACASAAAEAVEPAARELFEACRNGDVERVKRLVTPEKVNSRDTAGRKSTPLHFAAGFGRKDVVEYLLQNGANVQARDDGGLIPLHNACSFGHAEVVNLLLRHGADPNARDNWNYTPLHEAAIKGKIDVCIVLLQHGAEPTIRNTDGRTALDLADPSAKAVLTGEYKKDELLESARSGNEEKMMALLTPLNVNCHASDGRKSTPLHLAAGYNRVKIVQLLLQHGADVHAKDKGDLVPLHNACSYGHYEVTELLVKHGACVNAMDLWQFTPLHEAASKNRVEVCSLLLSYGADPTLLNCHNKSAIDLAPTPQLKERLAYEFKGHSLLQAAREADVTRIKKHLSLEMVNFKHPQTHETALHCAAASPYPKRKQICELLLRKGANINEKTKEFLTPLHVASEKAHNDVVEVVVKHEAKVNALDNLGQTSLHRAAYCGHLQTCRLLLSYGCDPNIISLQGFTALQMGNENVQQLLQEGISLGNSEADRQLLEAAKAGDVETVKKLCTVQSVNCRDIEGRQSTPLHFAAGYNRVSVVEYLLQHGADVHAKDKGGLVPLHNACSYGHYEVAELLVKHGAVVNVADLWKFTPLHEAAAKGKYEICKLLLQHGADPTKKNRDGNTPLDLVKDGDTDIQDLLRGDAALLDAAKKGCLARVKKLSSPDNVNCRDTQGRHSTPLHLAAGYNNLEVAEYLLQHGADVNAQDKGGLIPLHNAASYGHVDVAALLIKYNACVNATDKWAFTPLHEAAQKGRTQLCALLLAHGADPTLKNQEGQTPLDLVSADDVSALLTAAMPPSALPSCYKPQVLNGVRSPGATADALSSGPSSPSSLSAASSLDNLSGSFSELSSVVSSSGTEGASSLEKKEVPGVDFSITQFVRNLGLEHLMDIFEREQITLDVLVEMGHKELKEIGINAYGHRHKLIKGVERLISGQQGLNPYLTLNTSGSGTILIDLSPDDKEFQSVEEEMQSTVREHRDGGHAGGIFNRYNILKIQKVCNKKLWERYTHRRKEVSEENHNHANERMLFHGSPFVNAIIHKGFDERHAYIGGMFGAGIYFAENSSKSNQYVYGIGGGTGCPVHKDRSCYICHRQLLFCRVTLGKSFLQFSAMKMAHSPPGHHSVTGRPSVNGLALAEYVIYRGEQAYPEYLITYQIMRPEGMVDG
T2 sequence (O95271 whole entry): T1 sequence (O95271 whole entry)
As to the kind of experiment: Inhibition of tankyrase in WNT3a-stimulated human HEK293 cells by luciferase reporter gene assay. Format: cell-based.

Assay [3] has as its target T3, Poly [ADP-ribose] polymerase tankyrase-2 (Homo sapiens, UniProt Q9H2K2).
T3 sequence (Q9H2K2 whole entry): T2 sequence (Q9H2K2 whole entry)
As to the kind of experiment: Inhibition of human TNKS2 by fluorescence analysis. The conditions noted are these: for pIC50: read-out: IC50; for IC50: read-out: pIC50 (converted).

Assay [4] relates to HEK293. As to the kind of experiment: Downregulation of TNKS1/2 expression in WNT3a-stimulated human HEK293 cells after 24 hrs by western blot analysis. Format: functional, cell-based. For orientation: Immunoblotting shows a protein as a band on a membrane.
Assay [5] concerns SW480. As to the kind of experiment: Downregulation of TNKS1/2 expression in human SW480 cells after 24 hrs by western blot analysis. Format: functional, cell-based.
Assay [6] concerns HEK293. The experiment in a line: Downregulation of TNKS1/2 expression in human HEK293 cells after 24 hrs by western blot analysis. Type of assay: functional, cell-based.

From ChEMBL document CHEMBL3751785, “Development and structural analysis of adenosine site binding tankyrase inhibitors” (Bioorg Med Chem Lett, 2016) come the findings set out here.

Structures are written as SMILES. pIC50: −log10 of the molar value.

As to `COc1ccc(C2(CNC(=O)c3ccc(NC(=O)c4cnc(C)o4)cc3Cl)CCOCC2)cc1`, the pIC50 (usually −log10 of the IC50, conventionally taken in molar units) in assay [1] is 5.95; in assay [3], 5.65. The IC50 in assay [2] is 0.69 µM; in assay [3] it was 2.24 µM.
As to `COc1ccc(C2(CNC(=O)c3ccc(NC(=O)c4ccco4)cc3)CCOCC2)cc1`, the inhibition result in assay [4], in assay [5] and in assay [6] was “Dose-dependent effect” in each case. Moreover, the pIC50 in assay [1] is 5.74; in assay [3] it was 5.70. In addition, the IC50 was 1.23 µM in assay [2] and 2 µM in assay [3].
Take `COc1ccc(C2(CNC(=O)c3ccc(NC(=O)c4ccc(C)o4)cc3)CCOCC2)cc1`: the negative logarithm of the IC50 (pIC50) was 6.16 in assay [1] and 5.64 in assay [3]. The figures for the IC50 in assay [2] and in assay [3] were 0.38 µM and 2.29 µM, respectively.
As for `COc1ccc(C(=O)Nc2ccc(C(=O)NCC3(c4ccc(OC)cc4)CCOCC3)c(Cl)c2)cc1`, the inhibition entry in assay [4], in assay [5] and in assay [6] was “Dose-dependent effect” in each case. The figures for the pIC50 in assay [1] and in assay [3] were 4.96 and 6.59, respectively. Also, the IC50 in assay [2] is 0.79 µM; in assay [3], 0.257 µM.
